Tests used:
Details in all cases: treatment: drug + dasatinib (fixed dose, not stated); 5 days
ACHN [1] = experiment: AUC of dose-response viability curve, drug + dasatinib, normalised to DMSO (arbitrary (AUC of normalised viability)); higher = less growth inhibition
Method: (§1)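 Primary HTS combination arm: 8 RCC cell lines treated with 8 doses (up to 10 uM) of each library drug plus a fixed dose of dasatinib (dose not stated) for 5 days; viability read by CellTiter-Glo and normalised to DMSO. GI50 was fitted with XLfit, AUC is the area under the dose-response curve, and minimum viability is the lowest fraction of DMSO viability across doses.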

CAKI-1 [2] = experiment: as above
Method: as §1

769-P [3] = experiment: as above
Method: as §1

A498 [4] = experiment: as above
Method: as §1

786-O [5] = experiment: as above
Method: as §1

TK-10 [6] = experiment: as above
Method: as §1

SN12C [7] = experiment: as above
Method: as §1

UO-31 [8] = experiment: as above
Method: as §1

ACHN [9] = experiment: minimum viability across doses, drug + dasatinib, relative to DMSO (fraction); higher = less growth inhibition
Method: as §1

CAKI-1 [10] = experiment: as above
Method: as §1

769-P [11] = experiment: as above
Method: as §1

A498 [12] = experiment: as above
Method: as §1

786-O [13] = experiment: as above
Method: as §1

TK-10 [14] = experiment: as above
Method: as §1

SN12C [15] = experiment: as above
Method: as §1

UO-31 [16] = experiment: as above
Method: as §1

ACHN [17] = experiment: GI50 of drug in presence of dasatinib; higher = less potent
Method: as §1

CAKI-1 [18] = experiment: as above
Method: as §1

769-P [19] = experiment: as above
Method: as §1

A498 [20] = experiment: as above
Method: as §1

786-O [21] = experiment: as above
Method: as §1

TK-10 [22] = experiment: as above
Method: as §1

SN12C [23] = experiment: as above
Method: as §1

UO-31 [24] = experiment: as above
Method: as §1

Row | Structure (SMILES) | AUC of dose-response viability curve (ACHN [1]) | AUC of dose-response viability curve (CAKI-1 [2]) | AUC of dose-response viability curve (769-P [3]) | AUC of dose-response viability curve (A498 [4]) | AUC of dose-response viability curve (786-O [5]) | AUC of dose-response viability curve (TK-10 [6]) | AUC of dose-response viability curve (SN12C [7]) | AUC of dose-response viability curve (UO-31 [8]) | minimum viability across doses (ACHN [9]) | minimum viability across doses (CAKI-1 [10]) | minimum viability across doses (769-P [11]) | minimum viability across doses (A498 [12]) | minimum viability across doses (786-O [13]) | minimum viability across doses (TK-10 [14]) | minimum viability across doses (SN12C [15]) | minimum viability across doses (UO-31 [16]) | GI50 of drug (ACHN [17]) [nM] | GI50 of drug (CAKI-1 [18]) [nM] | GI50 of drug (769-P [19]) [nM] | GI50 of drug (A498 [20]) [nM] | GI50 of drug (786-O [21]) [nM] | GI50 of drug (TK-10 [22]) [nM] | GI50 of drug (SN12C [23]) [nM] | GI50 of drug (UO-31 [24]) [nM]
1 | CS(=O)(=O)O.Cc1ccc(NC(=O)c2ccc(CN3CCN(C)CC3)cc2)cc1Nc1nccc(-c2cccnc2)n1 [Imatinib Mesylate] + Cc1nc(Nc2ncc(C(=O)Nc3c(C)cccc3Cl)s2)cc(N2CCN(CCO)CC2)n1 [dasatinib] | 2.48 | 2.36 | 2.34 | 3.53 | 2.69 | 2.85 | 2.49 | 3.49 | 0.595 | 0.603 | 0.562 | 0.945 | 0.584 | 0.666 | 0.688 | 0.683 | > 10000 | > 10000 | > 10000 | > 10000 | > 10000 | > 10000 | > 10000 | > 10000
2 | C#Cc1cccc(Nc2ncnc3cc(OCCOC)c(OCCO)cc23)c1 + Cc1nc(Nc2ncc(C(=O)Nc3c(C)cccc3Cl)s2)cc(N2CCN(CCO)CC2)n1 [dasatinib] | 1.13 | 2.09 | 2.11 | 3.63 | 2.72 | 2.1 | 2.43 | 4.6 | 0.108 | 0.125 | 0.301 | 0.973 | 0.489 | 0.323 | 0.415 | 0.439 | 3.94 | 1010 | 760 | > 10000 | > 10000 | 1300 | > 10000 | 9830
3 | CNC(=O)c1cccc(-c2ccc3c(N4CCOC[C@@H]4C)nc(N4CCOC[C@@H]4C)nc3n2)c1 [AZD2014] + Cc1nc(Nc2ncc(C(=O)Nc3c(C)cccc3Cl)s2)cc(N2CCN(CCO)CC2)n1 [dasatinib] | 0.938 | 1.28 | 1.63 | 2.2 | 1.33 | 1.28 | 1.48 | 2.06 | 0.0544 | 0.0331 | 0.0727 | 0.147 | 0.0164 | 0.0635 | 0.119 | 0.00563 | 8.2 | 62.1 | 131 | 430 | 44 | 64 | 88.5 | 268
4 | FC(F)(F)c1ccc(/C=C/c2nc(COc3ccc(CCCCn4ccnn4)cc3)co2)cc1 [Mubritinib (TAK 165)] + Cc1nc(Nc2ncc(C(=O)Nc3c(C)cccc3Cl)s2)cc(N2CCN(CCO)CC2)n1 [dasatinib] | 1.26 | 2.17 | 2.32 | 1.99 | 0.96 | 1.56 | 1.09 | 1.66 | 0.183 | 0.543 | 0.539 | 0.231 | 0.0257 | 0.168 | 0.0505 | 0.124 | 31.4 | > 10000 | > 10000 | 243 | 23.8 | 146 | 41.6 | 74.7
5 | COc1cc(CCc2cc(NC(=O)c3ccc(N4C[C@@H](C)N[C@@H](C)C4)cc3)n[nH]2)cc(OC)c1 [AZD4547] + Cc1nc(Nc2ncc(C(=O)Nc3c(C)cccc3Cl)s2)cc(N2CCN(CCO)CC2)n1 [dasatinib] | 1.72 | 1.25 | 2.51 | 3.4 | 2.33 | 2.37 | 1.78 | 4.54 | 0.14 | 0.0512 | 0.581 | 0.542 | 0.106 | 0.314 | 0.061 | 0.016 | 314 | 34 | > 10000 | > 10000 | 3540 | 3000 | 201 | 4240
6 | C=CC(=O)Nc1ccc2ncnc(Nc3ccc(OCc4cccc(F)c4)c(Cl)c3)c2c1.Cc1ccc(S(=O)(=O)O)cc1 [AST-1306] + Cc1nc(Nc2ncc(C(=O)Nc3c(C)cccc3Cl)s2)cc(N2CCN(CCO)CC2)n1 [dasatinib] | 1.62 | 2.04 | 1.82 | 3.44 | 1.99 | 2.01 | 2.22 | 3.51 | 0.138 | 0.00665 | 0.0288 | 0.495 | 0.0714 | 0.0976 | 0.0534 | 0.06 | 84.7 | 1680 | 321 | 9990 | 1110 | 406 | 5350 | 3170
7 | C=CC(=O)Nc1cccc(Oc2nc(Nc3ccc(N4CCN(C)CC4)cc3)ncc2Cl)c1 [WZ3146] + Cc1nc(Nc2ncc(C(=O)Nc3c(C)cccc3Cl)s2)cc(N2CCN(CCO)CC2)n1 [dasatinib] | 1.21 | 1.47 | 1.85 | 2.76 | 1.88 | 1.76 | 1.92 | 2.32 | 0.034 | 0.00112 | 0.056 | 0.301 | 0.0305 | 0.0372 | 0.0852 | 0.00923 | 72.3 | 345 | 523 | 3060 | 878 | 373 | 997 | 553
8 | CCc1cccc(CC)c1NC(=O)N1Cc2[nH]nc(NC(=O)c3ccc(N4CCN(C)CC4)cc3)c2C1 + Cc1nc(Nc2ncc(C(=O)Nc3c(C)cccc3Cl)s2)cc(N2CCN(CCO)CC2)n1 [dasatinib] | 1.88 | 1.89 | 2.4 | 2.74 | 1.79 | 2.43 | 1.9 | 3.44 | 0.129 | 0.0817 | 0.565 | 0.406 | 0.0687 | 0.319 | 0.117 | 0.31 | 566 | 818 | > 10000 | 2720 | 469 | 4610 | 641 | 7530
9 | COc1ncc(-c2ccc3nccc(-c4ccnnc4)c3c2)cc1NS(=O)(=O)c1ccc(F)cc1F + Cc1nc(Nc2ncc(C(=O)Nc3c(C)cccc3Cl)s2)cc(N2CCN(CCO)CC2)n1 [dasatinib] | 0.822 | 0.66 | 0.957 | 1.82 | 0.564 | 0.955 | 1.1 | 0.993 | 0.0717 | 0.00939 | 0.0228 | 0.158 | 0.00295 | 0.0271 | 0.104 | 0.00632 | 8.21 | 7.86 | 18.4 | 168 | 4.97 | 16.5 | 19 | 28.1
10 | Cc1cc(Nc2cc(N3CCN(C)CC3)nc(/C=C/c3ccccc3)n2)n[nH]1.O=C(O)[C@H](O)[C@@H](O)C(=O)O [ENMD-2076] + Cc1nc(Nc2ncc(C(=O)Nc3c(C)cccc3Cl)s2)cc(N2CCN(CCO)CC2)n1 [dasatinib] | 1.32 | 1.4 | 1.92 | 2.4 | 1.78 | 1.91 | 1.81 | 2.5 | 0.0393 | 0.00949 | 0.131 | 0.247 | 0.0877 | 0.164 | 0.0567 | 0.0131 | 77.4 | 194 | 1000 | 1270 | 439 | 396 | 400 | 886
11 | C[C@H](NC(=O)/C(C#N)=C/c1cccc(Br)n1)c1ccccc1 [WP1066] + Cc1nc(Nc2ncc(C(=O)Nc3c(C)cccc3Cl)s2)cc(N2CCN(CCO)CC2)n1 [dasatinib] | 1.48 | 2.28 | 2.49 | 3.03 | 2.35 | 2.77 | 2.36 | 4.08 | 0.0689 | 0.285 | 0.0555 | 0.638 | 0.0254 | 0.713 | 0.385 | 0.00793 | 8.56 | 3970 | 3930 | > 10000 | 4310 | > 10000 | > 10000 | 7910
12 | Cc1ncc(-c2ccnc(Nc3ccc(S(C)(=O)=O)cc3)n2)n1C(C)C [AZD5438] + Cc1nc(Nc2ncc(C(=O)Nc3c(C)cccc3Cl)s2)cc(N2CCN(CCO)CC2)n1 [dasatinib] | 1.46 | 1.65 | 1.82 | 2.78 | 1.3 | 2.02 | 2.05 | 2.05 | 0.0173 | 0.0627 | 0.0188 | 0.0116 | 0.00349 | 0.127 | 0.0122 | 0.00804 | 246 | 238 | 474 | 1550 | 128 | 529 | 1760 | 367
13 | C[C@@H]1CN(CC(=O)Nc2ccc3c(c2)Cc2cccc(-c4cc(=O)cc(N5CCOCC5)o4)c2S3)C[C@H](C)O1 + Cc1nc(Nc2ncc(C(=O)Nc3c(C)cccc3Cl)s2)cc(N2CCN(CCO)CC2)n1 [dasatinib] | 2.04 | 2.15 | 2.37 | 3.33 | 2.51 | 2.69 | 2.48 | 4.18 | 0.381 | 0.165 | 0.373 | 0.771 | 0.282 | 0.589 | 0.511 | 0.213 | 4110 | 3790 | 5520 | > 10000 | 3470 | > 10000 | > 10000 | 6110
14 | Cc1cc(Nc2nc(N[C@@H](C)c3ccc(F)cc3)c(C#N)cc2F)n[nH]1 [AZ 960] + Cc1nc(Nc2ncc(C(=O)Nc3c(C)cccc3Cl)s2)cc(N2CCN(CCO)CC2)n1 [dasatinib] | 1.48 | 1.43 | 1.77 | 2.64 | 1.41 | 2.17 | 1.91 | 2.11 | 0.0473 | 0.00482 | 0.0281 | 0.246 | 0.00499 | 0.091 | 0.127 | 0.0082 | 123 | 146 | 442 | 987 | 197 | 882 | 651 | 496

Reference: the supplement of paper PMC8149375
